# Source: PubChem BioAssay (NCI)
#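 These data come from cells grown in 96-well plates and exposed to compound for 48 hours at five concentrations. GI50 is the concentration that inhibits growth by half. Definition used: TGI = concentration required for complete inhibition of growth.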
# Assays:
# Assay in all cases: NCI tumour cell line growth inhibition, 48 h
# OVCAR-8 ovarian = system: OVCAR-8 ovarian
# HOP-92 NSCLC = system: HOP-92 NSCLC
# SNB-75 CNS = system: SNB-75 CNS
# NCI-H226 lung = system: NCI-H226 lung
# SN12C renal = system: SN12C renal
# KM12 colon = system: KM12 colon
# PC-3 prostate = system: PC-3 prostate
# TK-10 renal = system: TK-10 renal
# SNB-19 CNS = system: SNB-19 CNS
# NCI/ADR-RES ovarian = system: NCI/ADR-RES ovarian
# OVCAR-3 ovarian = system: OVCAR-3 ovarian
# SW-620 colon = system: SW-620 colon
# UO-31 renal = system: UO-31 renal
# HS 578T breast = system: HS 578T breast
# RPMI-8226 leukemia = system: RPMI-8226 leukemia
# A498 renal = system: A498 renal
# SF-295 CNS = system: SF-295 CNS
# HL-60(TB) leukemia = system: HL-60(TB) leukemia
# COLO 205 colon = system: COLO 205 colon
# SK-MEL-5 melanoma = system: SK-MEL-5 melanoma
# HCC-2998 colon = system: HCC-2998 colon
# RXF 393 renal = system: RXF 393 renal
# LOX IMVI melanoma = system: LOX IMVI melanoma
# UACC-62 melanoma = system: UACC-62 melanoma
# SF-268 CNS = system: SF-268 CNS
# MDA-MB-231 breast = system: MDA-MB-231 breast
# U251 CNS = system: U251 CNS
# OVCAR-4 ovarian = system: OVCAR-4 ovarian
# SK-OV-3 ovarian = system: SK-OV-3 ovarian
# 786-0 renal = system: 786-0 renal
# CAKI-1 renal = system: CAKI-1 renal
# SK-MEL-2 melanoma = system: SK-MEL-2 melanoma
# M14 melanoma = system: M14 melanoma
# MDA-MB-468 breast = system: MDA-MB-468 breast
# HT29 colon = system: HT29 colon
# K-562 leukemia = system: K-562 leukemia
# SK-MEL-28 melanoma = system: SK-MEL-28 melanoma
# A549 NSCLC = system: A549 NSCLC
# BT-549 breast = system: BT-549 breast
# IGROV1 ovarian = system: IGROV1 ovarian
# HCT-15 colon = system: HCT-15 colon
# T-47D breast = system: T-47D breast
# DU-145 prostate = system: DU-145 prostate
# MDA-MB-435 = system: MDA-MB-435
# CCRF-CEM leukemia = system: CCRF-CEM leukemia
# NCI-H522 lung = system: NCI-H522 lung
# MCF7 breast = system: MCF7 breast
# HOP-62 NSCLC = system: HOP-62 NSCLC
# SF-539 CNS = system: SF-539 CNS
# MOLT-4 leukemia = system: MOLT-4 leukemia
# ACHN renal = system: ACHN renal
# NCI-H460 lung = system: NCI-H460 lung
# UACC-257 melanoma = system: UACC-257 melanoma
# EKVX NSCLC = system: EKVX NSCLC
# OVCAR-5 ovarian = system: OVCAR-5 ovarian
# HCT-116 colon = system: HCT-116 colon
# MALME-3M melanoma = system: MALME-3M melanoma
# NCI-H23 lung = system: NCI-H23 lung
smiles,measurement,setting,value
CCCSc1nc(Nc2ccc(S(N)(=O)=O)cc2)c(C#N)c(-c2cc(OC)c(OC)c(OC)c2)n1,GI50,OVCAR-8 ovarian,5 µM
same,TGI,OVCAR-8 ovarian,> 100 µM
same,GI50,HOP-92 NSCLC,3.98 µM
same,TGI,HOP-92 NSCLC,63.6 µM
same,GI50,SNB-75 CNS,2.09 µM
same,TGI,SNB-75 CNS,> 100 µM
same,GI50,NCI-H226 lung,6.07 µM
same,TGI,NCI-H226 lung,> 100 µM
same,GI50,SN12C renal,5.77 µM
same,TGI,SN12C renal,> 100 µM
same,GI50,KM12 colon,4.77 µM
same,TGI,KM12 colon,> 100 µM
same,GI50,PC-3 prostate,2.8 µM
same,TGI,PC-3 prostate,> 100 µM
same,GI50,TK-10 renal,16.1 µM
same,TGI,TK-10 renal,> 100 µM
same,GI50,SNB-19 CNS,11.7 µM
same,TGI,SNB-19 CNS,> 100 µM
same,GI50,NCI/ADR-RES ovarian,4.6 µM
same,TGI,NCI/ADR-RES ovarian,> 100 µM
same,GI50,OVCAR-3 ovarian,6.07 µM
same,TGI,OVCAR-3 ovarian,> 100 µM
same,GI50,SW-620 colon,8.34 µM
same,TGI,SW-620 colon,> 100 µM
same,GI50,UO-31 renal,2.59 µM
same,TGI,UO-31 renal,> 100 µM
same,GI50,HS 578T breast,7.33 µM
same,TGI,HS 578T breast,> 100 µM
same,GI50,RPMI-8226 leukemia,3.56 µM
same,TGI,RPMI-8226 leukemia,> 100 µM
same,GI50,A498 renal,> 100 µM
same,TGI,A498 renal,> 100 µM
same,GI50,SF-295 CNS,3.75 µM
same,TGI,SF-295 CNS,28.3 µM
same,GI50,HL-60(TB) leukemia,2.93 µM
same,TGI,HL-60(TB) leukemia,33.2 µM
same,GI50,COLO 205 colon,8.77 µM
same,TGI,COLO 205 colon,> 100 µM
same,GI50,SK-MEL-5 melanoma,2.75 µM
same,TGI,SK-MEL-5 melanoma,12.1 µM
same,GI50,HCC-2998 colon,7.53 µM
same,TGI,HCC-2998 colon,> 100 µM
same,GI50,RXF 393 renal,2.36 µM
same,TGI,RXF 393 renal,9.67 µM
same,GI50,LOX IMVI melanoma,3.68 µM
same,TGI,LOX IMVI melanoma,> 100 µM
same,GI50,UACC-62 melanoma,6.25 µM
same,TGI,UACC-62 melanoma,> 100 µM
same,GI50,SF-268 CNS,9.84 µM
same,TGI,SF-268 CNS,> 100 µM
same,GI50,MDA-MB-231 breast,7.23 µM
same,TGI,MDA-MB-231 breast,> 100 µM
same,GI50,U251 CNS,5.37 µM
same,TGI,U251 CNS,> 100 µM
same,GI50,OVCAR-4 ovarian,6.39 µM
same,TGI,OVCAR-4 ovarian,> 100 µM
same,GI50,SK-OV-3 ovarian,55.1 µM
same,TGI,SK-OV-3 ovarian,> 100 µM
same,GI50,786-0 renal,10.4 µM
same,TGI,786-0 renal,> 100 µM
same,GI50,CAKI-1 renal,5.76 µM
same,TGI,CAKI-1 renal,> 100 µM
same,GI50,SK-MEL-2 melanoma,11.8 µM
same,TGI,SK-MEL-2 melanoma,> 100 µM
same,GI50,M14 melanoma,6.74 µM
same,TGI,M14 melanoma,> 100 µM
same,GI50,MDA-MB-468 breast,6.22 µM
same,TGI,MDA-MB-468 breast,65.4 µM
same,GI50,HT29 colon,6.89 µM
same,TGI,HT29 colon,> 100 µM
same,GI50,K-562 leukemia,3.52 µM
same,TGI,K-562 leukemia,> 100 µM
same,GI50,SK-MEL-28 melanoma,7.29 µM
same,TGI,SK-MEL-28 melanoma,> 100 µM
same,GI50,A549 NSCLC,4.31 µM
same,TGI,A549 NSCLC,> 100 µM
same,GI50,BT-549 breast,3.24 µM
same,TGI,BT-549 breast,32.5 µM
same,GI50,IGROV1 ovarian,25.9 µM
same,TGI,IGROV1 ovarian,> 100 µM
same,GI50,HCT-15 colon,3.4 µM
same,TGI,HCT-15 colon,> 100 µM
same,GI50,T-47D breast,2.76 µM
same,TGI,T-47D breast,51 µM
same,GI50,DU-145 prostate,7.93 µM
same,TGI,DU-145 prostate,> 100 µM
same,GI50,MDA-MB-435,4.9 µM
same,TGI,MDA-MB-435,> 100 µM
same,GI50,CCRF-CEM leukemia,3.44 µM
same,TGI,CCRF-CEM leukemia,> 100 µM
same,GI50,NCI-H522 lung,10.7 µM
same,TGI,NCI-H522 lung,> 100 µM
same,GI50,MCF7 breast,4.23 µM
same,TGI,MCF7 breast,> 100 µM
same,GI50,HOP-62 NSCLC,11.1 µM
same,TGI,HOP-62 NSCLC,> 100 µM
same,GI50,SF-539 CNS,21.4 µM
same,TGI,SF-539 CNS,> 100 µM
same,GI50,MOLT-4 leukemia,2.53 µM
same,TGI,MOLT-4 leukemia,8.95 µM
same,GI50,ACHN renal,4.88 µM
same,TGI,ACHN renal,> 100 µM
same,GI50,NCI-H460 lung,5.46 µM
same,TGI,NCI-H460 lung,> 100 µM
same,GI50,UACC-257 melanoma,19.2 µM
same,TGI,UACC-257 melanoma,> 100 µM
same,GI50,EKVX NSCLC,5.27 µM
same,TGI,EKVX NSCLC,> 100 µM
same,GI50,OVCAR-5 ovarian,32.7 µM
same,TGI,OVCAR-5 ovarian,> 100 µM
same,GI50,HCT-116 colon,4.38 µM
same,TGI,HCT-116 colon,> 100 µM
same,GI50,MALME-3M melanoma,5.78 µM
same,TGI,MALME-3M melanoma,75.4 µM
same,GI50,NCI-H23 lung,15.7 µM
same,TGI,NCI-H23 lung,> 100 µM
